Results published in patent US20230020329A1, “Annelated 9-hydroxy-1,8-dioxo-1,3,4,8-tetrahydro-2H-pyrido[1,2-a]pyrazine-7-carboxamides as HIV integrase inhibitors, methods of preparation and application thereof” (priority 2019, published 2023).
Like-named read-outs stand apart in the source and are kept apart here.

Columns and labels:
HIV-1 (IIIB strain) = experiment: Anti-HIV cytoprotection assay (XTT), HIV-1 IIIB in CEM-SS cells; assay type: cell-based; details: CEM-SS cell line, read-out: Inhibitory activity (EC50) against HIV-1 (IIIB strain)
Outline: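 CEM-SS cells infected with a pre-titrated virus dose killing 85–95% of cells by day 6; protection from HIV-induced death read by XTT formazan. Compounds screened in triplicate at 30 and 10 nM, actives retested at 2 nM; AZT six-concentration curve on each plate as positive control.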

[1] = Pharmacokinetics in rat plasma, IV and oral; assay type: in vivo, male Sprague-Dawley rats
Experimental: The research was carried out on male Sprague-Dawley rats obtained from Charles River Laboratories (Germany). […] The age of the animals at the time of administration was 8-10 weeks. The animals were pre-catheterized so that all blood samples during the study of each substance could be taken from the same animals. Each substance was tested in 3 animals at each route of administration. The solution of test substances with a concentration of 0.2 mg/ml in 10% DMSO/10% Solutol/80% 0.05M N-methylglucamine was administered to rats intravenously in the tail vein at a dose of 1 mg/kg. Blood samples were collected at 5, 15, 30 min, 1, 2, 4, 8, and 24 hours after administration. Intragastric administration involved gavage using a solution with a concentration of 0.5 mg/ml in 0.5% methylcellulose at a dose of 5 mg/kg. Blood samples were collected at 15, 30 min, 1, 2, 4, 8, and 24 hours after administration. Blood (0.2 ml) was collected in polypropylene tubes containing 20 μl of 5% NaEDTA. Blood plasma was separated by centrifugation at 1500×g for 10 min and stored until testing at a temperature of −80° C. A pure acetonitrile-water (1:1) mixture (5 μl) was added to 45 μl of test samples. The samples were vortexed thoroughly for 10 seconds. Tolbutamide (100 μl) chilled to +4° C. (200 ng/ml in MeCN) was added to the samples and the mixture was vortexed. The samples were precipitated on ice at +4° C. for 15 minutes and then centrifuged at 2700 g for 10 min at +4° C. Supernatants (100 μl each) were transferred to a blank plate for HPLC/MS/MS analysis. The HPLC/MS/MS analysis was performed using an Agilent 1290 Infinity system coupled to an AB Sciex QTrap 6500 mass spectrometer. Pharmacokinetic analysis of plasma concentration vs time data was performed by a model-independent method using the Phoenix™ WinNonlin® 6.3 software (Pharsight Corp.). […]

C[C@H]1CO[C@@H]2Cn3cc(C(=O)NCc4ncc(F)cc4F)c(=O)c(O)c3C(=O)N12 [Compound 1.1.17, (3S,11aR)-6-hydroxy-N-[(3,5-difluoropyridin-2-yl)methyl]-3-methyl-5,7-dioxo-2,3,5,7,11,11a-hexahydro[1,3]oxazolo[3,2-a]pyrido[1,2-d]pyrazine-8-carboxamide]
EC50 (HIV-1 (IIIB strain); Human immunodeficiency virus 1, IIIB, CEM-SS): 240 pM

C[C@H]1CO[C@@H]2Cn3cc(C(=O)NCc4ccc(F)nc4F)c(=O)c(O)c3C(=O)N12 [Compound 1.1.19, (3S,11aR)-6-hydroxy-N-[(2,6-difluoropyridin-3-yl)methyl]-3-methyl-5,7-dioxo-2,3,5,7,11,11a-hexahydro[1,3]oxazolo[3,2-a]pyrido[1,2-d]pyrazine-8-carboxamide]
concentration at 8 h ([1]; male, Sprague-Dawley, rat plasma, oral 5 mg/kg, 8 h, read-out: C8 h): 7910 ng/mL
concentration at 24 h ([1]; male, Sprague-Dawley, rat plasma, oral 5 mg/kg, 24 h, read-out: C24 h): 4440 ng/mL
AUCINF ([1]; rat plasma, IV 1 mg/kg): 367.627 µg·h/mL
AUClast ([1]; rat plasma, IV 1 mg/kg): 202.189 µg·h/mL
Cmax ([1]; rat plasma, IV 1 mg/kg): 18550 ng/mL
MRTlast ([1]; rat plasma, IV 1 mg/kg): 9.46 h
T1/2 ([1]; rat plasma, IV 1 mg/kg): 21.2 h
Tmax ([1]; rat plasma, IV 1 mg/kg): 0.08 h
kel ([1]; rat plasma, IV 1 mg/kg): 0.03 h⁻¹
AUCINF ([1]; rat plasma, oral 5 mg/kg): 282.07 µg·h/mL
AUClast ([1]; rat plasma, oral 5 mg/kg): 176.506 µg·h/mL
Cmax ([1]; rat plasma, oral 5 mg/kg): 11488 ng/mL
MRTlast ([1]; rat plasma, oral 5 mg/kg): 9.42 h
T1/2 ([1]; rat plasma, oral 5 mg/kg): 16.5 h
Tmax ([1]; rat plasma, oral 5 mg/kg): 3 h
kel ([1]; rat plasma, oral 5 mg/kg): 0.04 h⁻¹
F (bioavailability) ([1]; rat, oral 5 mg/kg vs IV 1 mg/kg, F=(AUClast PO/5·AUClast IV)·100): 17.5%
EC50 (HIV-1 (IIIB strain)): 240 pM
